In patent US7090996B2, “Process for examining membrane enclosed biocompartments” (Micronas GmbH, priority 2000, dated 2006):

System: biocompartments 1 (biological cells)
Assay: Micro-flow chamber ISFET measurement of acidification and respiratory activity of biocompartments
Format: cell-based
Conditions: for acidification ΔpH−31 activated by the biocompartments / respiratory activity of the biocompartments: agent in culture medium, stand-still phase of pump, compared with agent-free medium (FIG. 5)
Source text: In a process for the examining of membrane enclosed biocompartments, biocompartments 1 were designed as biological cells placed in a micro-flow chamber 2. […] The space 3 is provided with an inlet opening 4 and an exit opening 5 for nutrient or culture medium. The chamber housing has a chamber base part 6 and a top part 7 which fits said base part 6 and the two parts are sealed liquid tight to one another by an interposed sealing ring 8.
The inlet opening 4 of the measurement space is connected to the measuring space 3 by a feed conduit 9, which in turn is connected to a culture medium supply 10. A pump 11 is placed in the feed canal 9 for the transport of the culture medium. The pump 11 can be turned on and off by means of a control apparatus (not shown). The exit opening 5 of the micro-flow chamber 2 is joined by means of a connecting line 12, to an exhaust opening 13 for release of the culture medium. In the measuring space 3, the biocompartments 1 stand in contact with the culture medium.
In the base of the measuring space 3, are placed a plurality of ISFET's 14. […] Between drain 16 and source 17, is a gate 18. Gate 18, drain 16 and source 17 are electrically insulated from the measurement space 3 by means of a silicon nitride layer (not shown). The silicon nitride layer forms on its side remote from the gate 18, an active sensor layer. By means of which layer, the ISFET 14 is controllable through the hydrogen ions present in the culture medium. Gate 18, drain 16 and source 17 of the ISFET are connected with a known evaluation apparatus for the determination of the pH value of the culture medium which is somewhat proportional to measurement signal of the respective ISFET 14.
As is particularly well presented in FIG. 2, an electrode 19 is placed in close proximity to the gates 18. This electrode 19 is constructed of a noble metal, such as palladium and is in direct contact with the culture medium.
A reference electrode 20 is paired with the operational electrode 19, which contacts the culture medium at a spatial distance from the ISFET 14. […] The reference electrode 20 and the operational electrodes 19 can be connected to an electrical source of potential for the application of an electric potential on the culture medium.
By means of the above described measurement arrangement, the respiratory activities of the biocompartments 1 can be indirectly measured. To carry out this purpose, the pump 11, which acts to transport the through-put of the culture medium through the measurement space 3, is temporarily stopped. In FIG. 4, the period of time during which the through-put in the measurement space 3 is stopped, is designated as the time T1 (stopping the pump 11) and T2 (starting the pump 11). This time interval can run, for instance, some 8 minutes.
Subsequently, by means of the ISFET 14, a first pH−1 is measured for the pH value of the culture medium, preparatory to a first pH measurement pair. […] When this occurs, this potential preferably is set at some −700 to −800 millivolts. In the embodiment of FIG. 3, this potential is applied to the electrodes 19, 20. The surface of the operational electrode 19 exposed to contact with the culture medium is chosen to be as small as possible with potential measuring preferably less than 1000 μm^2, so that, during the application of electrical voltage, the consumption of oxygen at the operational electrode 19 will be held at the lowest possible level. […]

Compound | viability of the biocompartments (agent in culture medium (FIG. 7)) | acidification ΔpH−31 activated by the biocompartments | respiratory activity of the biocompartments
Triton® | dying out | no longer influence the culture medium | no further sign of respiratory activity
O=C(O)CI [iodine acetate] |  | recedes | increase
